Residues, ends and D or L forms follow the SMILES beside them.
Experiments:
S. aureus USA300 [1] = assay: FITC entry into live bacteria, confocal microscopy; assay type: cell-based, Staphylococcus aureus; conditions: peptide and FITC 9 μM
Description: The entrance of a fluorescent dye into live bacterial cells was also followed by confocal microscopy (Mishra et al. (2015) RSC Advances 5:59758-59769). In brief, S. aureus USA300 was grown to the exponential phase from the overnight culture. The cells were then washed twice with fresh 1×PBS (pH 7.2) and the final cell density was adjusted to 1×10^8 CFU/mL. 1500 μL of the culture was added to the chambers of cuvettes (borosilicate cover glass systems; Nunc Cat. No. 155380) with equimolar concentrations of TetraF2W-RK and fluorescein isothiocyanate FITC (9 μM). The samples were examined with a confocal laser scanning microscope (Zeiss 710) with live time series of picture taken every 5 seconds for 5 minutes and the data were processed using Zen 2010 software.

S. aureus V8 protease = target: T1, S. aureus V8 protease (Staphylococcus aureus, UniProt P0C1U8); assay type: in vitro ADME; conditions: peptide:protease 40:1, 24 hours, 37° C.
T1 construct: purchased Sigma or Fisher
T1 sequence (P0C1U8 69-336): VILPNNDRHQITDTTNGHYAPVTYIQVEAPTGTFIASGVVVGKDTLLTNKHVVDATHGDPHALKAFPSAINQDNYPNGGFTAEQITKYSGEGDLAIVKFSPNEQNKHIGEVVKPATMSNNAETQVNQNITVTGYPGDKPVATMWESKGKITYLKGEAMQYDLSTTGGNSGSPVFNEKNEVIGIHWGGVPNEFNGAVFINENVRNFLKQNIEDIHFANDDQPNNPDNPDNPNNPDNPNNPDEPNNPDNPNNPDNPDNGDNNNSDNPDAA
Description: When degraded, no peptide band could be detected on a 5% stacking/18% resolving tricine gel after 2-4 hours incubation at 37° C. Briefly, a solution (100 μL) containing 250 μM peptide and 6.25 μM protease (Sigma or Fisher) in 10 mM PBS buffer (pH 8) was incubated at 37° C. (peptide/protease molar ratio, 40:1). Aliquots (10 μL) of the reaction solutions were taken at 0, 6, and 24 hours and immediately mixed with 10 μL of 2× SDS loading buffer followed by boiling for 5 minutes to stop the reaction. […] After electrophoresis, the gel was stained by Brilliant Blue R-250 (Fisher) and destained to view the peptide bands.

S. aureus USA300 [2] = assay: Live cell penetration experiment (FITC, confocal); assay type: cell-based, Staphylococcus aureus; conditions: peptide and FITC 12.5 μM
Description: The entrance of a fluorescent dye into live bacterial cells was followed by confocal microscopy (Mishra et al. (2015) RSC Advances 5:59758-59769). In short, S. aureus USA300 was grown to the exponential phase from the overnight culture. The cells were then washed twice with fresh 1×PBS (pH 7.2) and the final cell density was adjusted to 1×10^8 CFU/mL. 1500 μL of the culture was added to the chambers of cuvettes (borosilicate cover glass systems) with equimolar concentrations of TetraF2W-RK and fluorescein isothiocyanate FITC (12.5 μM). The samples were examined with a confocal laser scanning microscope (Zeiss 710) with a series of live time pictures taken at every 5 seconds for 5 minutes and the data were processed using Zen 2010 software.

S. aureus USA300 [3] = assay: Propidium iodide membrane permeation (Example 3); assay type: cell-based, Staphylococcus aureus; conditions: 3.1 μM
Description: FIGS. 15A and 15B show the growth inhibition (FIG. 15A) and propidium iodide-based membrane permeation (FIG. 15B) of S. aureus USA300 in TSB media by 3.1 μM of TetraF2W-RR and its single arginine variants (Table 8) at 37° C. with shaking at 100 rpm.
Fluorescence spectroscopy was also used to follow bacterial killing. In brief, μL of serially diluted 10× peptide concentrations were done in 96-well coming COSTAR microtiter plates. Propidium iodide at a fixed concentration of 20 μM per well was added to each well which was finally incubated with 88 μL of S. aureus USA300 (with a final OD600 0.1) with continuous shaking at 100 rpm with meander corner well shaking, 37° C. in a FLUOstar® Omega (BMG LABTECH Inc., NC) microplate reader. The plates were read every 5 minutes for a total duration of 2 hours with excitation and emission wavelengths at 584 nm and 620 nm, respectively.

S. aureus USA300 [4] = assay: Inhibition of bacterial attachment (XTT); assay type: cell-based, Staphylococcus aureus; conditions: 25 μM
Description: Three types of experiments were conducted to evaluate the anti-biofilm activity of these peptides against S. aureus USA300, which was grown in tryptic soy broth (TSB) media in flat bottom, 96-well, polystyrene microtiter plates (Mishra et al. (2015) RSC Advances 5:59758-59769; Dean et al. (2011) BMC Microbiol., 11:114).
The first experiment measures the ability of the peptide to inhibit bacterial attachment, the initial step for biofilm formation. In short, overnight cultures of S. aureus USA300 were grown in TSB media to an optical density (600 nm) of ˜1.0. 180 μL of this culture was added to each well of the microtiter plates containing 20 μL of 10× peptide solution. The plates are then incubated at 37° C. for 1 hour. Media with bacteria were then pipetted out and chambers were washed with 1×PBS to remove non-adherent cells. The inhibition of biofilms was estimated by XTT [2,3-bis(2-methyloxy-4-nitro-5-sulfophenyl)-2H-tertazolium-5-carboxanilide] assay by following the manufacturer's instructions with modifications. 180 μL of fresh TSB and 20 μL of XTT solution was added to each well and the plates were again incubated for 2 hours at 37° C. Absorbance at 450 nm (only media with XTT containing wells served as the blank) was obtained using a Chromate® microtiter plate reader. […]

S. aureus USA300 [5] = assay type: cell-based, Staphylococcus aureus; conditions: USA300, 20 h
Description: (§1) The antimicrobial activity of peptides was evaluated using a standard broth microdilution protocol. In brief, exponential phase bacteria at 10^6 CFU were incubated with serially diluted peptides overnight for ˜20 hours at 37° C. The plates were read on a ChroMate® 4300 Microplate Reader at 630 nm (GMI, Ramsey, Minn.).

S. aureus USA300 [6] = assay: Confocal microscopy of preformed biofilms, LIVE/DEAD staining; assay type: cell-based, Staphylococcus aureus; conditions: 25 μM
Description: S. aureus USA300 (10^5 CFU/mL) was made from exponentially growing bacteria. 1800 μL was added to the chamber of cuvettes (borosilicate cover glass systems), and was incubated for 37° C., 24 hours for biofilm formation. Media was then pipetted out and chambers were washed with 1×PBS to remove non-adhered cells. To disrupt the preformed biofilms, 200 μL of 10× stocks of the peptide was added followed by 1800 μL of TSB. Control cuvettes contained water instead of peptide. The cuvettes were again incubated for another 24 hours at 37° C. Subsequently, the supernatant was pipetted out and the chambers were washed with 1×PBS. For evaluation under confocal microscope the biofilms were stained with […] of LIVE/DEAD® kit (Invitrogen Molecular Probes) according to the manufacturer's instructions. The samples were examined with a confocal laser scanning microscope (Zeiss 710) and the data processed using Zen 2010 software.

E. coli ATCC 25922 = assay type: cell-based, Escherichia coli; conditions: ATCC 25922, 20 h
Description: as §1

Row | SMILES | time for FITC to enter the majority of cells (S. aureus USA300 [1]) [s] | stability to S. aureus V8 protease (S. aureus V8 protease) | time to entry of FITC into bacteria after peptide treatment (S. aureus USA300 [2]) [s] | membrane permeation by propidium iodide (S. aureus USA300 [3]) | reduction of adherence of bacterial cells (S. aureus USA300 [4]) [%] | S. aureus (MIC) (S. aureus USA300 [5]) [µM] | killing in 24 hour preformed biofilms (LIVE/DEAD confocal) (S. aureus USA300 [6]) | E. coli (MIC) (E. coli ATCC 25922) [µM]
1 | CC[C@H](C)[C@H](NC(=O)[C@H](CCCCN)NC(=O)[C@H](CCCNC(=N)N)NC(=O)[C@H](CC(C)C)NC(=O)[C@H](Cc1c[nH]c2ccccc12)NC(=O)[C@H](Cc1c[nH]c2ccccc12)NC(=O)[C@@H](N)Cc1c[nH]c2ccccc12)C(=O)N[C@@H](Cc1c[nH]c2ccccc12)C(N)=O [TetraF2W-RK, WWWLRKIW] (H-WWWLRKIW-NH2; N-terminus assumed) | 30 | not cut | 30 | – | – | – | – | –
2 | CC[C@H](C)[C@H](NC(=O)[C@H](CCCNC(=N)N)NC(=O)[C@H](CCCNC(=N)N)NC(=O)[C@H](CC(C)C)NC(=O)[C@H](Cc1c[nH]c2ccccc12)NC(=O)[C@H](Cc1c[nH]c2ccccc12)NC(=O)[C@@H](N)Cc1c[nH]c2ccccc12)C(=O)N[C@@H](Cc1c[nH]c2ccccc12)C(N)=O [TetraF2W-RR, WWWLRRIW] (H-WWWLRRIW-NH2; N-terminus assumed) | – | – | – | most potent | 83 | 3.1 | capable of killing S. aureus USA300 in 24 hour biofilms | 6.2
